# Laboratory results taken from ChEMBL document CHEMBL5120914, “An O-Benzyl Phosphonamidate Prodrug of Tenofovir for the Treatment of Hepatitis B Virus Infection” (J Med Chem, 2022).
# pEC50: −log10 of the molar value.
# Tests used:
# [1] = Cytotoxicity against human HepG2 cells assessed as reduction in cell growth incubated for 3 days by MTT assay; assay type: toxicity, cell-based; settings: time 3 day
# Hepatitis B virus [2] = assay: Antiviral activity against Hepatitis B virus infected in human HepG2.2.15 cells assessed as inhibition of viral DNA replication at 1 uM measured after 6 days by FQ-PCR analysis relative to control; assay type: functional, HepG2 2.2.15; parameters: scale not given: the % may be the effect or the level left; settings: time 6 day
# [3] = Metabolic stability in human plasma assessed as half life measured upto 24 hrs by HPLC analysis; assay type: ADME, cell-free
# [4] = Acute toxicity in overnight fasted Kunming mouse assessed as kidney tissue damage at 1.5 g/Kg, IG measured on day 15; assay type: tissue-based; settings: in vivo, po, 1500 mg/kg
# [5] = Acute toxicity in overnight fasted Kunming mouse assessed as lung tissue damage at 1.5 g/Kg, IG measured on day 15; assay type: tissue-based; settings: in vivo, po, 1500 mg/kg
# [6] = Drug metabolism in Sprague-Dawley rat liver assessed as AUC(0 to t) of TFV-DP at 20 mg/kg, IG meaured upto 12 hrs by HPLC-MS/MS analysis; assay type: ADME, organism-based; settings: in vivo, po
# Hepatitis B virus [7] = assay: Antiviral activity against Hepatitis B virus infected in duck assessed as log reduction in viral DNA replication in serum at 2.5 to 10 mg/kg, IG administered once daily for first 10 days followed by 40 mg/kg, IG administered for another 18 days; assay type: functional; settings: dose 2.5-40 mg/kg, time 28 day
# [8] = Toxicity in duck assessed as body weight loss at 2.5 to 10 mg/kg, IG administered once daily for first 10 days followed by 10 to 40 mg/kg, IG for another 18 days; assay type: organism-based; settings: anas platyrhynchos, in vivo, po, 672 h, dose 2.5-40 mg/kg, time 28 day
# [9] = Acute toxicity in overnight fasted Kunming mouse assessed as change in body weight at 1.5 g/Kg, IG measured for 15 days; settings: in vivo, po, 1500 mg/kg, 360 h, time 15 day
# [10] = Toxicity in duck assessed as liver necrosis at 2.5 to 10 mg/kg, IG administered once daily for first 10 days followed by 10 to 40 mg/kg, IG for another 18 days by hematoxyin-eosin staining based light microscopic analysis; assay type: organism-based; settings: anas platyrhynchos, in vivo, po, 672 h, dose 2.5-40 mg/kg, time 28 day
# [11] = Metabolic stability in rat plasma assessed as half life measured upto 25 mins by HPLC analysis; assay type: ADME, cell-free
# [12] = Toxicity in duck assessed as body weight gain at 2.5 to 10 mg/kg, IG administered once daily for first 10 days followed by 10 to 40 mg/kg, IG for another 18 days; assay type: organism-based; settings: anas platyrhynchos, in vivo, po, 672 h, dose 2.5-40 mg/kg, time 28 day
# [13] = Toxicity in duck assessed as animal survival at 2.5 to 10 mg/kg, IG administered once daily for first 10 days followed by 10 to 40 mg/kg, IG for another 18 days; assay type: organism-based; settings: anas platyrhynchos, in vivo, po, 672 h, dose 2.5-40 mg/kg, time 28 day
# Hepatitis B virus [14] = assay: Antiviral activity against Hepatitis B virus infected in duck assessed as log reduction in viral DNA replication in serum at 2.5 to 10 mg/kg, IG administered once daily for first 10 days followed by 20 mg/kg, IG administered for another 18 days; assay type: functional; settings: dose 2.5-20 mg/kg, time 28 day
# Hepatitis B virus [15] = assay: Antiviral activity against Hepatitis B virus infected in human HepG2.2.15 cells assessed as inhibition of viral DNA replication measured for 9 days by FQ-PCR analysis; assay type: functional, organism-based; settings: HepG2 2.2.15, 216 h
# [16] = Acute toxicity in overnight fasted Kunming mouse assessed as side effects at 1.5 g/Kg, IG measured for 15 days; settings: in vivo, po, 1500 mg/kg, 360 h, time 15 day
# [17] = Metabolic stability in dog plasma assessed as half life measured upto 24 hrs by HPLC analysis; assay type: ADME, cell-free, Canis lupus familiaris
# [18] = Acute toxicity in overnight fasted Kunming mouse assessed as spleen tissue damage at 1.5 g/Kg, IG measured on day 15; assay type: tissue-based; settings: in vivo, po, 1500 mg/kg
# [19] = Toxicity in duck assessed as liver hemorrhage at 2.5 to 10 mg/kg, IG administered once daily for first 10 days followed by 10 to 40 mg/kg, IG for another 18 days by hematoxyin-eosin staining based light microscopic analysis; assay type: organism-based; settings: anas platyrhynchos, in vivo, po, 672 h, dose 2.5-40 mg/kg, time 28 day
# Hepatitis B virus [20] = assay: Antiviral activity against Hepatitis B virus infected in duck assessed as log reduction in viral DNA replication in serum at 2.5 to 10 mg/kg, IG administered once daily for first 10 days followed by 10 mg/kg, IG administered for another 18 days; assay type: functional; settings: dose 2.5-10 mg/kg, time 28 day
# [21] = Acute toxicity in overnight fasted Kunming mouse assessed as animal survival at 1.5 g/Kg, IG measured for 15 days; settings: in vivo, po, 1500 mg/kg, 360 h, time 15 day
# [22] = Acute toxicity in overnight fasted Kunming mouse assessed as heart tissue damage at 1.5 g/Kg, IG measured on day 15; settings: in vivo, po, 1500 mg/kg
# [23] = Acute toxicity in overnight fasted Kunming mouse assessed as liver tissue damage at 1.5 g/Kg, IG measured on day 15; assay type: tissue-based; settings: in vivo, po, 1500 mg/kg
# [24] = Toxicity in duck assessed as inflammatory response in liver at 2.5 to 10 mg/kg, IG administered once daily for first 10 days followed by 10 to 40 mg/kg, IG for another 18 days by hematoxyin-eosin staining based light microscopic analysis; assay type: organism-based; settings: anas platyrhynchos, in vivo, po, 672 h, dose 2.5-40 mg/kg, time 28 day
# HepG2 = assay: Cytotoxicity against human HepG2 cells assessed as reduction in cell growth upto 500 uM incubated for 3 days by MTT assay; assay type: toxicity, cell-based; settings: hepg2, 72 h, time 3 day
# Hepatitis B virus [25] = assay: Antiviral activity against Hepatitis B virus infected in human HepG2.2.15 cells assessed as inhibition of viral DNA replication at 20 uM measured after 6 days by FQ-PCR analysis relative to control; assay type: functional, HepG2 2.2.15; parameters: scale not given: the % may be the effect or the level left; settings: time 6 day
smiles,measurement,setting,value
CC(C)OC(=O)[C@H](C)NP(=O)(CO[C@H](C)Cn1cnc2c(N)ncnc21)OCc1ccc(F)cc1 (stereo partly drawn),CC50 at 72 h,[1],> 500 µM
same,Activity,Hepatitis B virus [2],43.65%
CC(C)OC(=O)[C@H](C)NP(=O)(CO[C@H](C)Cn1cnc2c(N)ncnc21)OCc1ccc([N+](=O)[O-])cc1 (stereo partly drawn),CC50 at 72 h,[1],> 500 µM
same,Activity,Hepatitis B virus [2],22.15%
CCCOC(=O)[C@H](C)NP(=O)(CO[C@H](C)Cn1cnc2c(N)ncnc21)OCc1ccccc1C (stereo partly drawn),CC50 at 72 h,[1],> 500 µM
same,Activity,Hepatitis B virus [2],14.35%
Cc1ccccc1COP(=O)(CO[C@H](C)Cn1cnc2c(N)ncnc21)N[C@@H](C)C(=O)OC(C)C (stereo in doubt; 1a),half-life,[3],> 24 h
same,Activity,[4],Non-Toxic
same,Activity,[5],Non-Toxic
same,AUCt,[6],781.6 ng·h/g
same,Activity,Hepatitis B virus [7],2.9
same,Activity,[8],Non-Toxic
same,Activity,[9],Non-Toxic
same,Activity,[10],Non-Toxic
same,half-life,[11],< 5 min
same,Activity,[12],Toxic
same,Activity,[13],Non-Toxic
same,Activity,Hepatitis B virus [14],3.6
same,CC50 at 72 h,[1],> 500 µM
same,pEC50,Hepatitis B virus [15],7.62
same,Activity,[16],Non-Toxic
same,half-life,[17],> 24 h
same,Activity,"Hepatitis B virus [2]; 144 h, 1 µM",81.72%
same,Activity,[18],Non-Toxic
same,Activity,[19],Non-Toxic
same,Activity,Hepatitis B virus [20],3
same,Activity,[21],Non-Toxic
same,Activity,[22],Non-Toxic
same,Activity,[23],Non-Toxic
same,Activity,[24],Non-Toxic
Cc1ccccc1COP(=O)(CO[C@H](C)Cn1cnc2c(N)ncnc21)N[C@@H](C)C(=O)OC(C)C (stereo in doubt; 1a-1),Activity,HepG2,Non-Toxic
same,Activity,"Hepatitis B virus [2]; 144 h, 1 µM",62.5%
COC(=O)[C@H](C)NP(=O)(CO[C@H](C)Cn1cnc2c(N)ncnc21)OCc1ccccc1C (stereo partly drawn),CC50 at 72 h,[1],> 500 µM
same,pEC50,Hepatitis B virus [15],6.21
same,Activity,Hepatitis B virus [2],65.23%
Cc1ccccc1COP(=O)(CO[C@H](C)Cn1cnc2c(N)ncnc21)N[C@@H](Cc1ccccc1)C(=O)OC(C)C (stereo partly drawn),CC50 at 72 h,[1],> 500 µM
same,pEC50,Hepatitis B virus [15],6.31
same,Activity,Hepatitis B virus [2],63.8%
Cc1ccccc1COP(=O)(CO[C@H](C)Cn1cnc2c(N)ncnc21)N[C@@H](C)C(=O)OC1CCCCC1 (stereo partly drawn),CC50 at 72 h,[1],> 500 µM
same,Activity,Hepatitis B virus [2],21.46%
CC(C)OC(=O)[C@H](C)NP(=O)(CO[C@H](C)Cn1cnc2c(N)ncnc21)OCc1cccc(C(F)(F)F)c1 (stereo partly drawn),CC50 at 72 h,[1],> 500 µM
same,Activity,Hepatitis B virus [2],35.34%
CC(C)OC(=O)[C@H](C)NP(=O)(CO[C@H](C)Cn1cnc2c(N)ncnc21)OCc1ccc(Cl)cc1 (stereo partly drawn),CC50 at 72 h,[1],> 500 µM
same,pEC50,Hepatitis B virus [15],6.84
same,Activity,Hepatitis B virus [2],67.85%
CC(C)OC(=O)[C@H](C)NP(=O)(CO[C@H](C)Cn1cnc2c(N)ncnc21)OCc1ccccc1C(F)(F)F (stereo partly drawn),CC50 at 72 h,[1],> 500 µM
same,Activity,Hepatitis B virus [2],46.76%
CC(C)OC(=O)[C@H](C)NP(=O)(CO[C@H](C)Cn1cnc2c(N)ncnc21)OCc1ccccc1F (stereo partly drawn),CC50 at 72 h,[1],> 500 µM
same,pEC50,Hepatitis B virus [15],7.54
same,Activity,Hepatitis B virus [2],66.36%
COc1ccccc1COP(=O)(CO[C@H](C)Cn1cnc2c(N)ncnc21)N[C@@H](C)C(=O)OC(C)C (stereo partly drawn),CC50 at 72 h,[1],> 500 µM
same,Activity,Hepatitis B virus [2],53.33%
COc1ccc(COP(=O)(CO[C@H](C)Cn2cnc3c(N)ncnc32)N[C@@H](C)C(=O)OC(C)C)cc1 (stereo partly drawn),CC50 at 72 h,[1],> 500 µM
same,Activity,Hepatitis B virus [2],41.64%
CC(C)OC(=O)[C@H](C)NP(=O)(CO[C@H](C)Cn1cnc2c(N)ncnc21)OCc1ccccc1Cl (stereo partly drawn),CC50 at 72 h,[1],> 500 µM
same,Activity,Hepatitis B virus [2],42.6%
Cc1ccccc1COP(=O)(CO[C@H](C)Cn1cnc2c(N)ncnc21)N[C@@H](C)C(=O)OC1CCCC1 (stereo partly drawn),CC50 at 72 h,[1],> 500 µM
same,Activity,Hepatitis B virus [2],41.01%
Nc1ccn([C@@H]2CS[C@H](CO)O2)c(=O)n1 [LAMIVUDINE],CC50 at 72 h,[1],> 500 µM
same,Activity,Hepatitis B virus [25],77.32%
CC(C)OC(=O)[C@H](C)NP(=O)(CO[C@H](C)Cn1cnc2c(N)ncnc21)OCc1ccccc1[N+](=O)[O-] (stereo partly drawn),CC50 at 72 h,[1],> 500 µM
same,pEC50,Hepatitis B virus [15],7.11
same,Activity,Hepatitis B virus [2],79.74%
